Laboratory results reported in patent publication US10173968B2, “Bishydrazone-based antifungal agents” (University of Kentucky Research Foundation, priority 2016, dated 2019).
Like-named read-outs stand apart in the source and are kept apart here.

Columns and labels:
[1] = tested on: C. albicans ATCC 10231; experiment: Intracellular ROS production, DCFH-DA fluorescence assay; format: cell-based, Candida albicans; settings: positive control at 1 mM, 1 h at 35° C.
Text: We used the 2′,7′-dichlorodihydrofluorescein diacetate (DCFH-DA) dye as a probe to measure the production of ROS in yeast cells upon treatment with our compounds. DCFH-DA can easily cross the cell membranes and be hydrolyzed by cellular esterases to the non-fluorescent 2′,7′-dichlorodihydrofluorescein (DCFH), which can further be oxidized to the highly fluorescent 2′,7′-dichlorofluorescein (DCF) by the intracellular ROS. Five mL of RPMI 1640 medium were inoculated using a single colony of C. albicans ATCC 10231 (strain A) in a Falcon tube and grown overnight at 35° C. at 200 rpm. The overnight culture was diluted by adding 200 μL of yeast cells to 800 μL of the same medium. […] H2O2 at 1 mM was also used as a positive control. Cells were centrifuged and washed twice with PBS buffer (pH 7.2). Cells were resuspended in the same buffer and incubated with DCFH-DA (20 μg/mL) for 30 min in the dark. Afterwards, cells were centrifuged and washed with PBS buffer to remove excess DCFH-DA. Glass slides with 10-15 μL of each mixture were prepared and observed in bright field and fluorescence modes (FITC filter set, excitation and emission wavelengths of 488 and 512 nm, respectively) using a Zeiss Axovert 200M fluorescence microscope (FIG. 3).

[2] = tested on: A. baumannii ATCC 19606; experiment: Antibacterial MIC, double-dilution method; format: cell-based; settings: Acinetobacter baumannii, ATCC19606, strain E, Gram-negative, read-out: MIC
In short: (§1)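 Compounds were first screened at 500 μM each, then MICs were read by serial twofold dilution of the compound against the bacterial strain.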

[3] = tested on: B. subtilis 168; experiment: Antibacterial MIC, double-dilution method; format: cell-based; settings: Bacillus subtilis, strain A, Gram-positive
In short: as §1

[4] = tested on: E. cloacae ATCC 13047; experiment: Antibacterial MIC, double-dilution method; format: cell-based; settings: Enterobacter cloacae, ATCC13047, strain F, Gram-negative, read-out: MIC
In short: as §1

[5] = tested on: E. coli MC1061; experiment: Antibacterial MIC, double-dilution method; format: cell-based; settings: Escherichia coli, strain G, Gram-negative, read-out: MIC
In short: as §1

[6] = tested on: K. pneumoniae ATCC 27736; experiment: Antibacterial MIC, double-dilution method; format: cell-based; settings: Klebsiella pneumoniae, ATCC27736, strain H, Gram-negative, read-out: MIC
In short: as §1

[7] = tested on: L. monocytogenes ATCC 19115; experiment: Antibacterial MIC, double-dilution method; format: cell-based; settings: Listeria monocytogenes, ATCC19115, strain B, Gram-positive, read-out: MIC
In short: as §1

[8] = tested on: M. smegmatis MC2-155; experiment: Antibacterial MIC, double-dilution method; format: cell-based; settings: Mycolicibacterium smegmatis, MC2155, strain K, mycobacterial, read-out: MIC
In short: as §1

[9] = tested on: MRSA; experiment: Antibacterial MIC, double-dilution method; format: cell-based; settings: Staphylococcus aureus, strain C, Gram-positive, read-out: MIC
In short: as §1

[10] = tested on: P. aeruginosa ATCC 27853; experiment: Antibacterial MIC, double-dilution method; format: cell-based; settings: Pseudomonas aeruginosa, ATCC27853, strain I, Gram-negative, read-out: MIC
In short: as §1

[11] = tested on: S. enterica ATCC 14028; experiment: Antibacterial MIC, double-dilution method; format: cell-based; settings: Salmonella enterica, ATCC14028, strain J, Gram-negative, read-out: MIC
In short: as §1

[12] = tested on: VRE; experiment: Antibacterial MIC, double-dilution method; format: cell-based; settings: Enterococcus, strain D, Gram-positive, read-out: MIC
In short: as §1

[13] = tested on: C. albicans ATCC 1003; experiment: Antifungal MIC, CLSI M27-A3 microbroth dilution; format: cell-based, Candida albicans; settings: Candida albicans, ATCC1003, read-out: MIC
Description: (§2) In vitro MIC testing was performed according to the CLSI M27-A3 standard microbroth dilution methodology for the susceptibility testing of yeasts with minor modifications.

[14] = tested on: C. albicans ATCC 10231; experiment: Antifungal MIC, CLSI M27-A3 microbroth dilution; format: cell-based, Candida albicans; settings: Candida albicans, ATCC10231, C. albicans ATCC 10231, resistant to FLC, ITC, and VOR, read-out: MIC
Description: as §2

[15] = tested on: C. albicans ATCC 1237; experiment: Antifungal MIC, CLSI M27-A3 microbroth dilution; format: cell-based, Candida albicans; settings: Candida albicans, ATCC1237, C. albicans ATCC 1237, resistant to FLC, ITC, and VOR, read-out: MIC
Description: as §2

[16] = tested on: C. albicans ATCC 2310; experiment: Antifungal MIC, CLSI M27-A3 microbroth dilution; format: cell-based, Candida albicans; settings: Candida albicans, ATCC2310, C. albicans ATCC 2310, susceptible to FLC, ITC, and VOR, read-out: MIC
Description: as §2

[17] = tested on: C. albicans ATCC 2876; experiment: Antifungal MIC, CLSI M27-A3 microbroth dilution; format: cell-based, Candida albicans; settings: Candida albicans, ATCC2876, C. albicans ATCC 2876, susceptible to FLC, ITC, and VOR, read-out: MIC
Description: as §2

[18] = tested on: C. albicans ATCC 64124; experiment: Antifungal MIC, CLSI M27-A3 microbroth dilution; format: cell-based, Candida albicans; settings: Candida albicans, ATCC64124, C. albicans ATCC 64124, resistant to FLC, ITC, and VOR, read-out: MIC
Description: as §2

[19] = tested on: C. albicans ATCC 90819; experiment: Antifungal MIC, CLSI M27-A3 microbroth dilution; format: cell-based, Candida albicans; settings: Candida albicans, ATCC90819, C. albicans ATCC 90819, resistant to FLC, ITC, and VOR, read-out: MIC
Description: as §2

[20] = tested on: L. monocytogenes ATCC 19115 (strain B); format: cell-based, Listeria monocytogenes
Description: (§3) The bacteria were grown in MH broth at 37° C. for these experiments. […] The resulting cultures were diluted 1:1000 and grown until the culture reached ˜300,000 cfu/mL. That culture was then further diluted 1:1000 and used to determine the next round of MIC values.

[21] = tested on: MRSA (strain C); format: cell-based, Staphylococcus aureus
Description: as §3

[22] = tested on: VRE (strain D); format: cell-based, enterococcus
Description: as §3

[23] = tested on: P. aeruginosa ATCC 27853 (strain I); format: cell-based
Description: as §3

[24] = Mammalian cell cytotoxicity, resazurin; format: cell-based; settings: human
Description: Another important aspect to consider during the development of antimicrobial agents is their potential toxicity towards mammalian cells. Having established the potent antimicrobial activities of the bis(N-amidino)hydrazones and N-amidino-N′-aryl-bishydrazones against bacteria and fungi, the toxicity profile of these compounds was determined against two mammalian cell lines (A549 and BEAS-2B; FIGS. 4A-B). […]. Cytotoxicity assays were performed as previously described. The human lung carcinoma epithelial cells A549 and the normal human bronchial epithelial cells BEAS-2B were grown in F12-K and DMEM medium containing 10% fetal bovine serum (FBS) and 1% antibiotics, respectively. The confluent cells were trypsinized with 0.05%-trypsin-0.53 mM EDTA, centrifuged (1,200 rpm) and resuspended in fresh medium (F12-K or DMEM). The cells were seeded into 96-well microtiter plates at a density of 3,000 cells/well and were grown overnight. […] Triton X-100® (0.5%, v/v) gave complete loss of cell viability and was used as the positive control. The percent cell survival was calculated as: (test value/control value)×100, where control value represents cells+resazurin−drug, and test value represents cells+resazurin+drug.

[25] = tested on: all bacterial strains tested; experiment: Antibacterial MIC, summary over the panel; format: cell-based
Description: MIC values were determined against a variety of Gram-positive (strains A-D) and Gram-negative (E-J) bacterial and mycobacterial (K) strains using the double-dilution method, as previously published. Preliminary screening was performed using 500 μM of each compound.

[26] = after 15 serial passages at sub-inhibitory concentrations

With `OO` [Compound H2O2, H2O2, reference compound] the “intracellular ROS production” value [1] was “induced ROS production”.

For `C/C(=N\NC(=N)N)c1ccc(CCc2ccc(/C(C)=N/NC(=N)N)cc2)cc1.Cl.Cl` [Compound 4D, (2E,2′E)-2,2′-((Ethane-1,2-diylbis(4,1-phenylene))bis(ethan-1-yl-1-ylidene))bis(hydrazine-1-carboximidamide) dihydrochloride], the MIC ([2]; converted from μM) was > 226 µg/mL, the MIC ([2]; range 0.5 to 500 μM) was > 500 µM and the MIC ([3]; converted from μM) was > 226 µg/mL. For the same molecule, the MIC ([3]; range 0.5 to 500 μM) was > 500 µM, the MIC ([4]; converted from μM) was > 226 µg/mL and the MIC ([4]; range 0.5 to 500 μM) was > 500 µM. For the same molecule, the MIC ([5]; converted from μM) was > 226 µg/mL, the MIC ([5]; range 0.5 to 500 μM) was > 500 µM and the MIC ([6]; converted from μM) was > 226 µg/mL. The MIC ([6]; range 0.5 to 500 μM) was > 500 µM, the MIC ([7]; converted from μM) was 0.5 µg/mL and the MIC ([7]; range 0.5 to 500 μM) was 1 µM. For the same molecule, the MIC ([8]; converted from μM) was 0.5 µg/mL, the MIC ([8]; range 0.5 to 500 μM) was 1 µM and the MIC ([9]; converted from μM) was 0.5 to 0.9 µg/mL. For the same molecule, the MIC ([9]; range 0.5 to 500 μM) was 1 to 2 µM, the MIC ([10]; converted from μM) was > 226 µg/mL and the MIC ([10]; range 0.5 to 500 μM) was > 500 µM. For the same molecule, the MIC ([11]; converted from μM) was > 226 µg/mL, the MIC ([11]; range 0.5 to 500 μM) was > 500 µM and the MIC ([12]; converted from μM) was 0.5 µg/mL. The MIC ([12]; range 0.5 to 500 μM) was 1 µM, the MIC ([13]; C. albicans ATCC 1003, converted from μg/mL) was 34.6 µM and the MIC [13] was 15.6 µg/mL. For the same molecule, the MIC ([14]; converted from μg/mL) was 17.3 µM, the MIC [14] was 7.8 µg/mL and the MIC ([15]; converted from μg/mL) was 34.6 µM. It also gave an MIC [15] of 15.6 µg/mL, an MIC ([16]; converted from μg/mL) of 69.3 µM and an MIC [16] of 31.3 µg/mL. The MIC ([17]; converted from μg/mL) was 8.6 µM, the MIC [17] was 3.9 µg/mL and the MIC ([18]; converted from μg/mL) was > 69.3 µM. For the same molecule, the MIC [18] was > 31.3 µg/mL, the MIC ([19]; converted from μg/mL) was 17.3 µM and the MIC [19] was 7.8 µg/mL. For the same molecule, the “increase in relative MIC values” [20, 26] was 8 fold, the “increase in relative MIC values” [21, 26] was 16 fold and the “increase in relative MIC values” [22, 26] was 16 fold. For the same molecule, the “increase in relative MIC values” [23, 26] was 4 fold.

Work on `Cl.N=C(N)N/N=C/c1ccc(-c2ccc(/C=N/Nc3ccc(F)cc3)cc2)cc1` [Compound 7Ac, (E)-2-((4′-((E)-(2-(4-Fluorophenyl)hydrazono)methyl)-[1,1′-biphenyl]-4-yl)methylene)hydrazine-1-carboximidamide monohydrochloride] yielded an IC50 at 24 h ([24]; BEAS-2B) of 7.8 to 15.6 µg/mL, an IC50 at 24 h ([24]; A549, 24 h) of 7.8 to 15.6 µg/mL and an MIC ([25]; read-out: antibacterial MIC values) of 0.4 to 3.3 µg/mL. For the same molecule, the melting point was > 380 °C.

Molecule `NCC[C@H](O)C(=O)N[C@@H]1C[C@H](N)[C@@H](O[C@H]2O[C@H](CN)[C@@H](O)[C@H](O)[C@H]2O)[C@H](O)[C@H]1O[C@H]1O[C@H](CO)[C@@H](O)[C@H](N)[C@H]1O` [AMK, amikacin, reference compound] has an MIC ([3]; converted from μM) of 3 to 12.2 µg/mL, an MIC ([3]; range 0.5 to 500 μM) of 3.9 to 15.6 µM and an MIC ([4]; converted from μM) of 48.9 µg/mL. The MIC ([4]; range 0.5 to 500 μM) was 62.5 µM, the MIC ([5]; converted from μM) was 24.5 µg/mL and the MIC ([5]; range 0.5 to 500 μM) was 31.3 µM. It also gave an MIC ([7]; range 0.5 to 500 μM) of 3.9 µM, an MIC ([8]; converted from μM) of 12.2 µg/mL and an MIC ([8]; range 0.5 to 500 μM) of 15.6 µM. For the same molecule, the MIC ([10]; converted from μM) was 48.9 µg/mL, the MIC ([10]; range 0.5 to 500 μM) was 62.5 µM and the MIC ([11]; converted from μM) was 3 to 6.1 µg/mL. For the same molecule, the MIC ([11]; range 0.5 to 500 μM) was 3.9 to 7.8 µM, the MIC ([12]; converted from μM) was 97.7 µg/mL and the MIC ([12]; range 0.5 to 500 μM) was 125 µM. The “development of resistance (passages after which resistance developed)” value (“development of resistance” below) ([20]; up to 15 passages) was 15 passages, the “development of resistance” value ([21]; up to 15 passages) was 12 passages and the “development of resistance” value ([22]; up to 15 passages) was 3 passages. The “development of resistance” value ([23]; up to 15 passages) was 5 passages and the MIC ([25]; read-out: MIC, span over all bacterial strains tested) was 3.9 to 125 µM.
